The target in assay [1] is T1, Macrophage metalloelastase (Homo sapiens, UniProt P39900). Kind of assay: Inhibition of MMP12.
Target sequence in this assay (P39900 whole entry): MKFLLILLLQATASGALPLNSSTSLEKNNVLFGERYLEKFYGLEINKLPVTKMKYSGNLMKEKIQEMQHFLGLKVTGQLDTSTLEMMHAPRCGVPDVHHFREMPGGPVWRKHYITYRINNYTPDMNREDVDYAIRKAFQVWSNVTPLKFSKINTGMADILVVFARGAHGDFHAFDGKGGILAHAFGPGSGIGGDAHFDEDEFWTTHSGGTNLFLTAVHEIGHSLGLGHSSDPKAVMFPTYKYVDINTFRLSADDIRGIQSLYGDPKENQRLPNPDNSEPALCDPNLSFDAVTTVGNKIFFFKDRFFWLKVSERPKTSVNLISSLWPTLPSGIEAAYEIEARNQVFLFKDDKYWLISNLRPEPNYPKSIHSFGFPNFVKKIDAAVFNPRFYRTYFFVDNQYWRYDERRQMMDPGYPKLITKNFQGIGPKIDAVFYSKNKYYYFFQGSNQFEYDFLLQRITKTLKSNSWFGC
The target of assay [2] is T1, Macrophage metalloelastase. Briefly: Inhibition of MMP12 at 500 uM.
Target sequence in this assay (P39900 106-470 limits assumed): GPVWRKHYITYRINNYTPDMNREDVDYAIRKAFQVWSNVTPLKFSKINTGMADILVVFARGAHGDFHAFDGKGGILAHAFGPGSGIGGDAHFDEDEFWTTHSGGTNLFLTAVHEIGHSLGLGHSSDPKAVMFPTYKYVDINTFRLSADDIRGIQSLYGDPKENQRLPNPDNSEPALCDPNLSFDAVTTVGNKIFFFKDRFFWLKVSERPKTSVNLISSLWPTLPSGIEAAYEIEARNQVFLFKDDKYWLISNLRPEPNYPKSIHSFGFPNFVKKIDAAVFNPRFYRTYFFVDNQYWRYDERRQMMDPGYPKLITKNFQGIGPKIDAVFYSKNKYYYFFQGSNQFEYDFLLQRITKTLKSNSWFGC
Assay [3] addresses T1, Macrophage metalloelastase. Particulars: 0.0025 uM.
Target sequence in this assay (P39900 106-470 limits assumed): as above
Description: Inhibition of MMP12 at 0.0025 uM

The structures appear in SMILES notation.

As a reminder, the IC50 is the concentration that inhibits the measured activity by half. In general, inhibition refers to the change of the read-out against control, counted positive when it falls. High values mean strong suppression, low ones little suppression. With `Cc1nc(-c2ccc3c(c2)CCC(=O)N3)cs1`, the IC50 in assay [1] amounted to 5000 µM. In assay [2], this compound registered an inhibition of 10%.
For `O=C1NC(=O)C(c2ccccc2)N1` (configuration not stated), in assay [1], the IC50 came out at 0.29 µM. This compound had an inhibition in assay [2] of 100%.
`COc1ccc2nc[nH]c2c1` had an IC50 in assay [1] of 2000 µM. In assay [2], the inhibition is 25%.
In assay [1], `Cn1cc2c(n1)-c1cc(Cl)ccc1SC2` had an IC50 of 1000 µM. In assay [2], the inhibition stood at 30%.
Consider `CNC(=O)[C@H](Cc1c[nH]c2ccccc12)NC(=O)[C@@H](CC(=O)NO)CC(C)C` [ILOMASTAT], for which, in assay [1], half-maximal inhibition (IC50) required 0.001 µM. In assay [3], this compound came in with an inhibition of 75%.
Regarding `Cc1ccc2c(c1)NC(=O)CO2`, the IC50 in assay [1] was 355 µM. The inhibition in assay [2] came out at 60%.

Source of the values: ChEMBL document CHEMBL1150410, “Identification of MMP-12 inhibitors by using biosensor-based screening of a fragment library” (J Med Chem, 2008).
